In PubChem BioAssay AID1919017 (Molecular Pharmacology Branch, DTP, NCI, 2023):

Tested on: SW1271 complex spheroids with HUVEC/MSC, growth, % test/control
Test: Anticancer human tumor SW1271 cell line growth inhibition [AhR];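 also: spheroids exposed to agents for 7 days before readout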
Settings: for IC50: curve of first compound; for viability, T/C: stronger effect = lower value
In short: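 Spheroids combined tumor cells with HUVEC endothelial cells and human MSCs as stroma. AhR antagonists were paired with standard or investigational drugs, each dosed in half-log steps down from near clinical Cmax, or from 10 microM where Cmax was unknown.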

[1] = second compound 0.1 µM, first compound 0.0316 µM
[2] = second compound 0.1 µM, first compound 0.1 µM
[3] = second compound 0.1 µM, first compound 0.316 µM
[4] = second compound 0.1 µM, first compound 1 µM
[5] = second compound 0.316 µM, first compound 0.0316 µM
[6] = second compound 0.316 µM, first compound 0.1 µM
[7] = second compound 0.316 µM, first compound 0.316 µM
[8] = second compound 0.316 µM, first compound 1 µM
[9] = second compound 1 µM, first compound 0.0316 µM
[10] = second compound 1 µM, first compound 0.1 µM
[11] = second compound 1 µM, first compound 0.316 µM
[12] = second compound 1 µM, first compound 1 µM
[13] = second compound 3.16 µM, first compound 0.0316 µM
[14] = second compound 3.16 µM, first compound 0.1 µM
[15] = second compound 3.16 µM, first compound 0.316 µM
[16] = second compound 3.16 µM, first compound 1 µM
[17] = second compound 10 µM, first compound 0.0316 µM
[18] = second compound 10 µM, first compound 0.1 µM
[19] = second compound 10 µM, first compound 0.316 µM
[20] = second compound 10 µM, first compound 1 µM

Row | SMILES | IC50 (second compound 0.1 µM) [nM] | IC50 (second compound 0.316 µM) [nM] | IC50 (second compound 1 µM) [nM] | IC50 (second compound 3.16 µM) [nM] | IC50 (second compound 10 µM) [nM] | viability, T/C [1] [%] | viability, T/C [2] [%] | viability, T/C [3] [%] | viability, T/C [4] [%] | viability, T/C [5] [%] | viability, T/C [6] [%] | viability, T/C [7] [%] | viability, T/C [8] [%] | viability, T/C [9] [%] | viability, T/C [10] [%] | viability, T/C [11] [%] | viability, T/C [12] [%] | viability, T/C [13] [%] | viability, T/C [14] [%] | viability, T/C [15] [%] | further results
1 | CC1COCCN1c1cc(-c2ccnn2C)c2ccnc(-c3ccn[nH]3)c2n1 (stereo not given) + CC(CO)NC(=O)c1cc(-c2ccc(Cl)cc2)nn(-c2cnn(C)c2)c1=O | 916 | 867 | > 1000 | 694 | 543 | 94.4 | 82.1 | 67.8 | 48.5 | 81.7 | 84.3 | 70 | 46.8 | 86.7 | 80.7 | 65.7 | 49.1 | 75.5 | 75.9 | 57.2 | viability, T/C (second compound 0.1 µM, first compound 0.00316 µM): 102%; viability, T/C (second compound 0.1 µM, first compound 0.01 µM): 97.5%; viability, T/C (second compound 0.316 µM, first compound 0.00316 µM): 92.5%; viability, T/C (second compound 0.316 µM, first compound 0.01 µM): 96.1%; viability, T/C (second compound 1 µM, first compound 0.00316 µM): 110%; viability, T/C (second compound 1 µM, first compound 0.01 µM): 98.2%; viability, T/C (second compound 3.16 µM, first compound 0.00316 µM): 84.5%; viability, T/C (second compound 3.16 µM, first compound 0.01 µM): 79.2%; viability, T/C [16]: 45.6%; viability, T/C (second compound 10 µM, first compound 0.00316 µM): 88.9%; viability, T/C (second compound 10 µM, first compound 0.01 µM): 75%; viability, T/C [17]: 68.5%; viability, T/C [18]: 66.6%; viability, T/C [19]: 47.9%; viability, T/C [20]: 47.6%
2 | CC1COCCN1c1cc(C2(S(C)(=N)=O)CC2)nc(-c2ccnc3[nH]ccc23)n1 (stereo not given) + CC(CO)NC(=O)c1cc(-c2ccc(Cl)cc2)nn(-c2cnn(C)c2)c1=O | > 10000 | > 10000 | > 10000 | 8830 | > 10000 | 114 | 92.9 | 77.6 | 88.9 | 91.3 | 96.7 | 90.3 | 73.2 | 80.7 | 100 | 98.5 | 77 | 98.3 | 83.4 | 86.4 | viability, T/C (second compound 0.1 µM, first compound 3.16 µM): 72.7%; viability, T/C (second compound 0.1 µM, first compound 10 µM): 59.9%; viability, T/C (second compound 0.316 µM, first compound 3.16 µM): 56.1%; viability, T/C (second compound 0.316 µM, first compound 10 µM): 50.9%; viability, T/C (second compound 1 µM, first compound 3.16 µM): 68.3%; viability, T/C (second compound 1 µM, first compound 10 µM): 57.1%; viability, T/C [16]: 73.3%; viability, T/C (second compound 3.16 µM, first compound 3.16 µM): 61.1%; viability, T/C (second compound 3.16 µM, first compound 10 µM): 48.5%; viability, T/C [17]: 80%; viability, T/C [18]: 67.6%; viability, T/C [19]: 72%; viability, T/C [20]: 70.6%; viability, T/C (second compound 10 µM, first compound 3.16 µM): 69.2%; viability, T/C (second compound 10 µM, first compound 10 µM): 62.9%
